pIC50: −log10 of the molar value.
How the values were obtained:
[1] = In-vivo pharmacokinetics in mice, oral administration; parameters: species or system male CD1 mice; conditions: for AUC(0-inf) / Cmax / half-life: male, CD1, mouse, oral 10 mg/kg, plasma; for F: oral 10 mg/kg vs intravenous 1 mg/Kg
Description: In this experimental example, the in-vivo pharmacokinetic evaluation was made for mice by intravenous injection and oral administration.
Experimental methods and conditions: male CD1 mice, 6 to 8 weeks old; all animals had free access to food and water; 5 min, 15 min, 30 min, 1 hr, 2 hr, 4 hr, 8 hr and 24 hr after the mice were subjected to a single intravenous injection of 1 mg/Kg of a compound to be tested (solvent 5% DMSO/15% Solutol/80% Saline) (saline in the present application all means a saline solution), or 15 min, 30 min, 1 hr, 2 hr, 4 hr, 6 hr, 8 hr and 24 hr after the mice were subjected to oral intragastric administration of 10 mg/kg (solvent 5% DMSO/10% Solutol/85% Saline), blood was collected from orbits, not less than 50 μL of each sample was collected, and heparin sodium was used for anticoagulation; the collected samples were placed on ice, and the plasma was centrifugally separated within 1 hour for testing. The drug concentration in the plasma was detected by liquid chromatography tandem mass spectrometry (LC/MS/MS), and the pharmacokinetic parameters were calculated by Phoenix WinNonlin software. Embodiment 82 in CN110612294 A was taken as a control sample 1.

[2] = In-vivo pharmacokinetics in rats, oral administration; parameters: species or system male SD rats; conditions: for AUC(0-inf) / Cmax / half-life: male, SD, rat, oral 10 mg/kg, plasma; for F: oral 10 mg/kg vs intravenous 1 mg/Kg
Description: In this experimental example, the in-vivo pharmacokinetic evaluation was made for rats by intravenous injection and oral administration.
Experimental methods and conditions: male SD rats, 6 to 8 weeks old; all animals had free access to food and water; 5 min, 15 min, 30 min, 1 hr, 2 hr, 4 hr, 8 hr, 24 hr and 48 hr after the rats were subjected to a single intravenous injection of 1 mg/Kg of a compound to be tested (solvent 5% DMSO/15% Solutol/80% Saline), or 15 min, 30 min, 1 hr, 2 hr, 4 hr, 6 hr, 8 hr, 24 hr and 48 hr after the rats were subjected to oral intragastric administration of 10 mg/kg (solvent 5% DMSO/10% Solutol/85% Saline), blood was collected from orbits, not less than 50 μL of each sample was collected, and heparin sodium was used for anticoagulation; the collected samples were placed on ice, and the plasma was centrifugally separated within 1 hour for testing. The drug concentration in the plasma was detected by liquid chromatography tandem mass spectrometry (LC/MS/MS), and the pharmacokinetic parameters were calculated by Phoenix WinNonlin software. Embodiment 82 in CN110612294 A was taken as a control sample 1.

[3] = In-vivo pharmacokinetics in dogs, oral administration; parameters: species or system male Beijing Marshall beagles; conditions: for AUC(0-inf) / Cmax / half-life: male, beagle, dog, oral 10 mg/kg, plasma; for F: oral 10 mg/kg vs intravenous 1 mg/Kg
Description: In this experimental example, the in-vivo pharmacokinetic evaluation was made for dogs by intravenous injection and oral administration.
Experimental methods and conditions: male Beijing Marshall beagles, 12 to 18 months old; the beagles were subjected to administration half an hour after feeding; 5 min, 15 min, 30 min, 1 hr, 2 hr, 4 hr, 8 hr, 24 hr, 48 hr and 72 hr after the beagles were subjected to a single intravenous injection of 1 mg/Kg of a compound to be tested (solvent 5% DMSO/10% Solutol/85% Saline), or 15 min, 30 min, 1 hr, 2 hr, 4 hr, 6 hr, 8 hr, 24 hr, 48 hr and 72 hr after the beagles were subjected to oral intragastric administration of 10 mg/kg (solvent 5% DMSO/10% Solutol/85% Saline), blood was collected from orbits, not less than 50 μL of each sample was collected, and heparin sodium was used for anticoagulation; the collected samples were placed on ice, and the plasma was centrifugally separated within 1 hour for testing. The drug concentration in the plasma was detected by liquid chromatography tandem mass spectrometry (LC/MS/MS), and the pharmacokinetic parameters were calculated by Phoenix WinNonlin software. Embodiment 82 in CN110612294 A was taken as a control sample 1.

[4] = system: VCaP cells; experiment: Inhibitory effect on VCaP cell proliferation (Cell Titer Glo); assay type: cell-based; conditions: Homo sapiens, 144 h; for pIC50: VCaP cells, 5% FBS and 0.1 nM R1881, 6 days; for Emax: maximum degree of VCaP cell proliferation inhibition, 6 days
Description: A tumor cell line Vcap (ATCC Cat. No. CRL-2876) was respectively cultured with DMEM (Gibco Cat. No. 11965-092) medium containing 10% FBS (Gibco Cat. No. 10099-141C). During testing, Vcap cells were replaced with a DMEM culture fluid containing 5% FBS and 0.1 nM R1881 (Sigma Cat. No. R0908). The assay method was as follows:
Vcap cells were seeded to a 384-well plate (Perkin Elmer Cat. No. 6007460) at a cell density of 1200 cells/well and a volume of 20 μL/well; after the cells were incubated overnight in a carbon dioxide incubator (Thermo), the prepared compound solutions with different concentrations were added at a volume of 5 μL/well; meanwhile, a corresponding solvent was provided as a control; after the cells were continuously incubated in the incubator for 6 days, the cell plate and the contents thereof were equilibrated to room temperature; 25 μL of a Cell Titer Glor (Promega Cat. No. G7573) reagent was added to each well; after vibration and uniform mixing, incubation in the dark was performed for 10-30 minutes, and a signal value was detected with Envision microplate reader (PerkinElmer).
A percentage inhibition rate of compound-treated wells was calculated through solvent control wells on the plate, GraphPad prism was used to fit the percentage inhibition rate data corresponding to different concentrations, and IC50 value was calculated by a 4-parameter nonlinear logistic formula.
Emax: a maximum degree of VCaP cell proliferation inhibition. IC50: a compound concentration required to achieve half the maximum degree of VCaP cell proliferation inhibition.

AUC(0-inf) [1] [ng·h/mL]	Cmax [1] [ng/mL]	half-life [1] [h]	F [1] [%]	AUC(0-inf) [2] [ng·h/mL]	Cmax [2] [ng/mL]	half-life [2] [h]	F [2] [%]	AUC(0-inf) [3] [ng·h/mL]	Cmax [3] [ng/mL]	half-life [3] [h]	F [3] [%]	pIC50 [4]	Structure (SMILES)	Emax [4] [%]
18900	1260	6.22	68.8	2650	147	7.62	11.9	14100	482	19.9	44.1		CC1(C)[C@H](NC(=O)c2ccc(N3CCC(CN4CCN(c5ccc6c(=O)n(C7CCC(=O)NC7=O)ncc6c5)CC4)CC3)cc2)C(C)(C)[C@H]1Oc1ccc(C#N)c(Cl)c1 (some centres unmarked) [Compound 1]	
				3210	173	8.28	5.13	15400	868	34.3	33.9	8.01	CC1(C)[C@H](NC(=O)c2ccc(N3CCC(CN4CCN(c5ccc6c(=O)n([C@H]7CCC(=O)NC7=O)ncc6c5)CC4)CC3)cc2)C(C)(C)[C@H]1Oc1ccc(C#N)c(Cl)c1 [Compound 28A]	74
13400	677	7.91	24.1	6200	253	13.4	11.9					7.25	CC1(C)[C@H](NC(=O)c2ccc(N3CCC(CN4CCN(c5ccc6c(=O)n(C7CCC(=O)NC7=O)nc(F)c6c5)CC4)CC3)cc2)C(C)(C)[C@H]1Oc1ccc(C#N)c(Cl)c1 (some centres unmarked) [Compound 29]	66

— patent publication US12234223B2, “Phthalazinone compound, and preparation method therefor and medical use thereof” (SHANGHAI JEMINCARE PHARMACEUTICALS CO., LTD, priority 2020, dated 2025)
